BindingDB's records for doi:10.7270/Q2V69MR5 (n/a, 1993)

Target: T1, Neutrophil elastase (Homo sapiens, UniProt P08246)
T1 sequence (P08246 whole entry): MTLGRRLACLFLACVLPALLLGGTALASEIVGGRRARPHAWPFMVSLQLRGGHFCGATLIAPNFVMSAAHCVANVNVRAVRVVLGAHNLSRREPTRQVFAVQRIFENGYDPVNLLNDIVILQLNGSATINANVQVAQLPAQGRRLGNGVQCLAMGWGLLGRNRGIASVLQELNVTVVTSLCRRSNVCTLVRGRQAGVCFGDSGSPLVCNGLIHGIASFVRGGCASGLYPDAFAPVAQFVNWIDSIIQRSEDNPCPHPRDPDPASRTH
Assay: Compound was evaluated for the inhibitory activity against Human leukocyte elastase; time-dependent inhibition was not observed
Conditions: read-out: kon (M-1-s-1)

kon: 5.6 M⁻¹ s⁻¹
Compound: CC[C@H]1C(=O)N(C(=O)NCc2ccccc2)[C@H]1Oc1ccc(C(=O)O)cc1
